Measured values published in patent US20250057969A1, “CONJUGATES COMPRISING CLEAVABLE LINKERS” (priority 2023, published 2025).
Numbered stars: 1 amine (or outer) side, 2 acyl side, 3 side chain; on linkers, the order of the positions; unused ones are H or OH. Square brackets hold non-standard residues; d marks the D form. Peptide text beside a SMILES is read from it. * marks the point of attachment. X1 = O=C(O)[C@H]1O[C@@H](Oc2ccc(COC(=O)[*:2])cc2N[*:1])[C@H](O)[C@@H](O)[C@@H]1O; CH3O(CH2CH2O)11CH2CH2CO = COCCOCCOCCOCCOCCOCCOCCOCCOCCOCCOCCOCCC(=O)*; Dolaproine = CO[C@@H]([C@@H]1CCCN1)[C@@H](C)C(=O)O; Hexanoyl(6-maleimido) = O=C1C=CC(=O)N1CCCCCC(=O)*; Propanoyl(3-maleimido) = O=C1C=CC(=O)N1CCC(=O)*; Dil = CC[C@H](C)[C@H](NC)[C@@H](CC(=O)O)OC; PABC = O=C(OCc1ccc(N[*:1])cc1)[*:2]; X2 = C[C@@H](N*)[C@@H](O)c1ccccc1; Cit = NC(=O)NCCC[C@H](N)C(=O)O; NMeV = CN[C@H](C(=O)O)C(C)C; βAla = NCCC(=O)O

Assays:
Type in all cases: biochemical
[1] = target: T1, Human neutrophil elastase (Homo sapiens, UniProt P08246); experiment: Linker-Payload enzymatic cleavage with human neutrophil elastase; details: 0.67 μM enzyme, 67 μM Linker-Payload, pH 7.4, 37° C., 24 hours
T1 sequence (P08246 30-267): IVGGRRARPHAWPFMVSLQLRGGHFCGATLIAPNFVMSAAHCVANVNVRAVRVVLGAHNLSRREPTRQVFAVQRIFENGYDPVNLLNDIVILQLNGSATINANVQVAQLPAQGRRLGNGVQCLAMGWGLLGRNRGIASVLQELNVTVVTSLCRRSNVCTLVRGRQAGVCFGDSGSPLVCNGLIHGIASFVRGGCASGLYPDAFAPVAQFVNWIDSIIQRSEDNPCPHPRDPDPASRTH
Description: (§1) 0.67 μM Human neutrophil elastase was added to 67 μM Linker-Payload (1:100) in Tris Buffered Saline, pH 7.4. The mixture was incubated at 37° C. for a duration of 24 hours with intermediate timepoints collected and diluted 1:1 with buffer containing acetonitrile, water and formic acid. The sample was measured by reverse-phase HPLC with data quantified against a standard curve.

β-glucuronidase = target: T2, β-glucuronidase (Homo sapiens, UniProt P08236); experiment: Linker-Payload enzymatic cleavage with β-glucuronidase; details: 4 nM enzyme, 40 μM Linker-Payload, pH 5.0, 37° C., 24 hours
T2 sequence (P08236 23-651): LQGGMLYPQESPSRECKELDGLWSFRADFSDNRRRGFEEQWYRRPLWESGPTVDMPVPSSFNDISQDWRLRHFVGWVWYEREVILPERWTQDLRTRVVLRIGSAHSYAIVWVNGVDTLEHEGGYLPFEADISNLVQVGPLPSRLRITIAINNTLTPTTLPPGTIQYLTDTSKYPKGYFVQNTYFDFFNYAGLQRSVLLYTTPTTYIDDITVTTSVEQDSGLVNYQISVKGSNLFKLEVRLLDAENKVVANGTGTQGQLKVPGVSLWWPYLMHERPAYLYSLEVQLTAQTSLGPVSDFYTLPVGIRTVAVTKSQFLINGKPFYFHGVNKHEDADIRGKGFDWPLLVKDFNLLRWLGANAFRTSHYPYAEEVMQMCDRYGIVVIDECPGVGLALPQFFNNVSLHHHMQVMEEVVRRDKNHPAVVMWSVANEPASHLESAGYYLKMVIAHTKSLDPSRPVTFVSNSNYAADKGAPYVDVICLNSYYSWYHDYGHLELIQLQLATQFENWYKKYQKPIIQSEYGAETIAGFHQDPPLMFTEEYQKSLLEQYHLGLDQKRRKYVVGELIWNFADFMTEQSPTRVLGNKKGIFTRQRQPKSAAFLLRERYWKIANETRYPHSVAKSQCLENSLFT
Description: as §1, with “4 nM β-glucuronidase” for “0.67 μM Human neutrophil elastase”, “40” for “67”, “(1:10,000)” for “(1:100)”, “50 mM sodium acetate,” for “Tris Buffered Saline,”, “5.0.” for “7.4.”

Cathepsin B = Cathepsin B (Homo sapiens, UniProt P07858); experiment: Linker-Payload enzymatic cleavage with Cathepsin B; details: 0.14 μM enzyme, 70 μM Linker-Payload, pH 5.0, 37° C., 24 hours
Description: as §1, with “0.14” for “0.67”, “Cathepsin B” for “Human neutrophil elastase”, “70” for “67”, “(1:500)” for “(1:100)”, “50 mM sodium acetate, 1 mM DTT,” for “Tris Buffered Saline,”, “5.0.” for “7.4.”

SMILES | cleavage in the presence of human neutrophil elastase (FIG. 1C) [1] | cleavage in the presence of β-glucuronidase (FIG. 1A) (β-glucuronidase) | cleavage rate in the presence of β-glucuronidase relative to LP7 and LP8 (FIG. 1E) (β-glucuronidase) | cleavage in the presence of human neutrophil elastase (FIG. 1D) [1] | cleavage in the presence of cathepsin B (FIG. 1B) (Cathepsin B)
CC[C@H](C)[C@@H]([C@@H](CC(=O)N1CCC[C@H]1[C@H](OC)[C@@H](C)C(=O)N[C@H](C)[C@@H](O)c1ccccc1)OC)N(C)C(=O)[C@@H](NC(=O)[C@H](C(C)C)N(C)C(=O)OCc1ccc(NC(=O)[C@H](CCCNC(N)=O)NC(=O)[C@@H](NC(=O)CCCCCN2C(=O)C=CC2=O)C(C)C)cc1)C(C)C [LP1, maleimidocaproyl-valine-citrulline-p-amrninobenzoyloxycajrbonyl-MMAE, reference compound] ({Hexanoyl(6-maleimido)}-V[Cit][PABC][NMeV]V[Dil][Dolaproine]-X2) | underwent more rapid cleavage |  |  |  | 
CC[C@H](C)[C@@H]([C@@H](CC(=O)N1CCC[C@H]1[C@H](OC)[C@@H](C)C(=O)N[C@H](C)[C@@H](O)c1ccccc1)OC)N(C)C(=O)[C@@H](NC(=O)[C@H](C(C)C)N(C)C(=O)OCc1ccc(O[C@@H]2O[C@H](C(=O)O)[C@@H](O)[C@H](O)[C@H]2O)c(CNC(=O)CCNC(=O)COC2(CNC(=O)CCN3C(=O)C=CC3=O)CN(C(=O)CCOCCOCCOCCOCCOCCOCCOCCOCCOCCOCCOCCOC)C2)c1)C(C)C [LP2] | did not undergo rapid cleavage | underwent significant cleavage | underwent slower cleavage than both LP7 (Reference) and LP8 (Reference) | did not undergo rapid cleavage | neither LP2 nor LP3 underwent rapid cleavage
CC[C@H](C)[C@@H]([C@@H](CC(=O)N1CCC[C@H]1[C@H](OC)[C@@H](C)C(=O)N[C@H](C)[C@@H](O)c1ccccc1)OC)N(C)C(=O)[C@@H](NC(=O)[C@H](C(C)C)N(C)C(=O)OCc1ccc(O[C@@H]2O[C@H](C(=O)O)[C@@H](O)[C@H](O)[C@H]2O)c(CNC(=O)COC2(CNC(=O)CCN3C(=O)C=CC3=O)CN(C(=O)CCOCCOCCOCCOCCOCCOCCOCCOCCOCCOCCOCCOC)C2)c1)C(C)C [LP3] | did not undergo rapid cleavage | underwent significant cleavage |  |  | neither LP2 nor LP3 underwent rapid cleavage
CC[C@H](C)[C@@H]([C@@H](CC(=O)N1CCC[C@H]1[C@H](OC)[C@@H](C)C(=O)N[C@H](C)[C@@H](O)c1ccccc1)OC)N(C)C(=O)[C@@H](NC(=O)[C@H](C(C)C)N(C)C(=O)OCc1ccc(O[C@@H]2O[C@H](C(=O)O)[C@@H](O)[C@H](O)[C@H]2O)c(CNC(=O)CCNC(=O)[C@H](CCCCNC(=O)CCOCCOCCOCCOCCOCCOCCOCCOCCOCCOCCOCCOC)NC(=O)CCN2C(=O)C=CC2=O)c1)C(C)C [LP7, reference compound] |  |  |  | did not undergo rapid cleavage | 
CC[C@H](C)[C@@H]([C@@H](CC(=O)N1CCC[C@H]1[C@H](OC)[C@@H](C)C(=O)N[C@H](C)[C@@H](O)c1ccccc1)OC)N(C)C(=O)[C@@H](NC(=O)[C@H](C(C)C)N(C)C(=O)OCc1ccc(O[C@@H]2O[C@H](C(=O)O)[C@@H](O)[C@H](O)[C@H]2O)c(NC(=O)CCNC(=O)[C@H](CCCCNC(=O)CCOCCOCCOCCOCCOCCOCCOCCOCCOCCOCCOCCOC)NC(=O)CCN2C(=O)C=CC2=O)c1)C(C)C [LP8, reference compound] ({Propanoyl(3-maleimido)}-K(CH3O(CH2CH2O)11CH2CH2CO)[βAla][X1][NMeV]V[Dil][Dolaproine]-X2) |  |  |  | did not undergo rapid cleavage | 
